Measured values taken from patent US20240158348A1, “HERBICIDAL CYCLIC AMIDES N-SUBSTITUTED WITH A HALOALKYLSULFONYLANILIDE GROUP” (FMC Corporation, priority 2021, published 2024).

Tests used:
Format in all cases: in vivo
[1] = tested on: sedge, umbrella (small-flower umbrella sedge, Cyperus difformis); test: Test B flooded paddy test, umbrella sedge; conditions: 250 g ai/ha, Flood, scale of 0 to 100 where 0 is no effect and 100 is complete control, visually evaluated after 10 to 14 days, read-out: Plant response rating, Sedge, Umbrella
Description: (§1) Plant species in the flooded paddy test selected from barnyardgrass (Echinochloa crusgalli), ducksalad (Heteranthera limosa), rice (Oryza sativa), and sedge, umbrella (small-flower umbrella sedge, Cyperus difformis) were grown to the 2-leaf stage for testing. At time of treatment, test pots were flooded to 3 cm above the soil surface, treated by application of test compounds directly to the paddy water, and then maintained at that water depth for the duration of the test. Treated plants and controls were maintained in a greenhouse for 10 to 14 days, after which time all species were compared to controls and visually evaluated. Plant response ratings, summarized in Table B, are based on a scale of 0 to 100 where 0 is no effect and 100 is complete control. A dash (-) response means no test result.

[2] = tested on: foxtail, giant (giant foxtail, Setaria faberi); test: Test A postemergence, giant foxtail; conditions: post-emergence, 240 h, 0 to 100 scale, 10 days, read-out: Plant response rating, Foxtail, Giant; for pest or weed control at 31 g/ha: 31 g ai/ha; for pest or weed control at 125 g/ha: 125 g ai/ha
From the text: (§2) Seeds of plant species selected from barnyardgrass (Echinochloa crus-galli), blackgrass (Alopecurus myosuroides), corn (Zea mays), foxtail, giant (giant foxtail, Setaria faberi), goosegrass (Eleusine indica), kochia (Bassia scoparia), oat, wild (wild oat, Avena fatua), pigweed, palmer (palmer amaranth, Amaranthus palmeri), pigweed, redroot (redroot pigweed, Amaranthus retroflexus), ragweed (common ragweed, Ambrosia artemisiifolia), ryegrass, Italian (Italian ryegrass, Lolium multiflorum), soybean (Glycine max), and wheat (Triticum aestivum) were planted into a blend of loam soil and sand and treated preemergence with a directed soil spray using test chemicals formulated in a non-phytotoxic solvent mixture which included a surfactant.
(§3) At the same time, plants selected from these crop and weed species and also galium (catchweed bedstraw, Galium aparine) and horseweed (Erigeron canadensis) were planted in pots containing the same blend of loam soil and sand and treated with postemergence applications of test chemicals formulated in the same manner. Plants ranged in height from 2 to 10 cm and were in the one- to two-leaf stage for the postemergence treatment. Treated plants and untreated controls were maintained in a greenhouse for 10 days, after which time all treated plants were compared to untreated controls and visually evaluated for injury. Plant response ratings, summarized in Table A, are based on a 0 to 100 scale where 0 is no effect and 100 is complete control. A dash (-) response means no test result.

[3] = tested on: blackgrass (Alopecurus myosuroides); test: Test A postemergence, blackgrass; conditions: 0 to 100 scale, 10 days
From the text: as §2, §3

[4] = tested on: ducksalad (Heteranthera limosa); test: Test B flooded paddy test, ducksalad; conditions: 250 g ai/ha, Flood, scale of 0 to 100 where 0 is no effect and 100 is complete control, visually evaluated after 10 to 14 days, read-out: Plant response rating, Ducksalad
Description: as §1

[5] = tested on: kochia (Bassia scoparia); test: Test A postemergence, kochia; conditions: post-emergence, 240 h, 0 to 100 scale, 10 days, read-out: Plant response rating, Kochia; for pest or weed control at 31 g/ha: 31 g ai/ha; for pest or weed control at 125 g/ha: 125 g ai/ha
From the text: as §2, §3

[6] = tested on: galium (catchweed bedstraw, Galium aparine); test: Test A postemergence, galium; conditions: post-emergence, 240 h, 0 to 100 scale, 10 days, read-out: Plant response rating, Galium; for pest or weed control at 31 g/ha: 31 g ai/ha; for pest or weed control at 125 g/ha: 125 g ai/ha
From the text: as §2, §3

[7] = tested on: rice (Oryza sativa); test: Test B flooded paddy test, rice; conditions: 250 g ai/ha, Flood, scale of 0 to 100 where 0 is no effect and 100 is complete control, visually evaluated after 10 to 14 days, read-out: Plant response rating, Rice
Description: as §1

[8] = tested on: goosegrass (Eleusine indica); test: Test A preemergence, goosegrass; conditions: 0 to 100 scale, 10 days
From the text: as §2, §3

[9] = tested on: corn (Zea mays); test: Test A preemergence, corn; conditions: 0 to 100 scale, 10 days
From the text: as §2, §3

[10] = tested on: pigweed, palmer (palmer amaranth, Amaranthus palmeri); test: Test A preemergence, palmer amaranth; conditions: 0 to 100 scale, 10 days
From the text: as §2, §3

[11] = tested on: goosegrass (Eleusine indica); test: Test A postemergence, goosegrass; conditions: 0 to 100 scale, 10 days
From the text: as §2, §3

Structure (SMILES) | pest or weed control at 250 g/ha [1] | pest or weed control at 31 g/ha [2] | pest or weed control at 125 g/ha [2] | Plant response rating, Blackgrass ([3]; 31 g ai/ha) | Plant response rating, Blackgrass ([3]; 125 g ai/ha) | pest or weed control at 250 g/ha [4] | pest or weed control at 31 g/ha [5] | pest or weed control at 125 g/ha [5] | pest or weed control at 31 g/ha [6] | pest or weed control at 125 g/ha [6] | plant injury at 250 g/ha [7] | Plant response rating, Goosegrass ([8]; 31 g ai/ha) | Plant response rating, Goosegrass ([8]; 125 g ai/ha) | Plant response rating, Corn ([9]; 31 g ai/ha) | Plant response rating, Corn ([9]; 125 g ai/ha) | Plant response rating, Pigweed, Palmer ([10]; 31 g ai/ha) | Plant response rating, Pigweed, Palmer ([10]; 125 g ai/ha) | Plant response rating, Goosegrass ([11]; 31 g ai/ha) | Plant response rating, Goosegrass ([11]; 125 g ai/ha)
C=CCOC1CCN(c2cc(NS(=O)(=O)C(F)(F)F)c(C)cc2C)C1=O (stereo not drawn) [Compound 2, N-[2,4-dimethyl-5-[2-oxo-3-(2-propen-1-yloxy)-1-pyrrolidinyl]phenyl]-1,1,1-trifluoromethanesulfonamide] | 85% | 30% | 50% | 20 | 40 | 75% | 20% | 60% | 80% | 100% | 10% |  |  |  |  |  |  |  | 
Cc1cc(C)c(N2CCC(OC3CCCC3)C2=O)cc1NS(=O)(=O)C(F)(F)F (stereo not drawn) [Compound 6, N-[5-[3-(cyclopentyloxy)-2-oxo-1-pyrrolidinyl]-2,4-dimethylphenyl]-1,1,1-trifluoromethanesulfonamide] | 75% | 10% | 60% | 0 | 40 | 85% | 20% | 80% | 80% | 90% | 10% | 90 | 100 | 30 | 80 | 70 | 100 | 80 | 90
Cc1cc(C)c(N(COC(=O)C(C)(C)C)S(=O)(=O)C(F)(F)F)cc1N1CCC(OC2CCC2)C1=O (stereo not drawn) [Compound 8, [[5-[3-(cyclobutyloxy)-2-oxo-1-pyrrolidinyl]-2,4-dimethylphenyl][(trifluoromethyl)sulfonyl]amino]methyl 2,2-dimethylpropanoate] | 95% | 30% | 80% | 30 | 40 | 95% | 60% | 80% | 100% | 100% | 35% | 70 | 100 | 0 | 10 | 30 | 90 | 80 | 90
Cc1cc(C)c(N2CCC(OC3CCC3)C2=O)cc1NS(=O)(=O)C(F)(F)F (stereo not drawn) [Compound 4, N-[5-[3-(cyclobutyloxy)-2-oxo-1-pyrrolidinyl]-2,4-dimethylphenyl]-1,1,1-trifluoromethanesulfonamide] | 100% | 40% | 80% |  |  | 100% | 60% | 90% | 100% | 100% | 0% | 100 | 100 | 40 | 90 | 100 | 100 | 70 | 90
